Values quoted from earlier work, collected in US20230008367A1, “COMPOUNDS USEFUL FOR TREATING LIVER DISEASES” (ABIONYX PHARMA SA, priority 2019, published 2023).

Test system: adults with NASH and fibrosis
Conditions: Phase 3 trial

## CSc1ccc(C(=O)/C=C/c2cc(C)c(OC(C)(C)C(=O)O)c(C)c2)cc1 [elafibranor]
  primary endpoint of NASH resolution without worsening of fibrosis: did not demonstrate a statistically significant effect
